Measurements from patent US8092974B2, “Production method of toner for developing electrostatic image” (Zeon Corporation, priority 2006, dated 2012).

Test: Average number of small diameter microparticles per colored resin particle (SEM count after polymerization)
Details: aqueous dispersion after polymerization process; SEM 5,000 magnification, 25 particles
Source text: The average number of small diameter microparticles per colored resin particle is a value calculated in such a manner that aqueous dispersion containing colored resin particles after polymerization process is collected and prepared to be a sample for measurement with a scanning electron microscopy (SEM); the prepared sample is photographed at 5,000 magnification in five fields of view by means of the scanning electron microscopy; five colored resin particles are randomly selected in each image; the number of small diameter microparticles observed on the surface of 25 colored resin particles in total is counted; and the average number of small microparticles per colored resin is calculated therefrom.
The number of small diameter microparticles per colored resin particle can be measured by means of a commercially available scanning electron microscopy. For example, it can be measured by means of a field emission scanning electron microscopy (product name: S-4700; manufactured by: Hitachi, Ltd.). […]
The sample was randomly photographed in five fields of view, and five colored resin particles were randomly selected in each image to count the number of small diameter microparticles observed on the surface of 25 colored resin particles in total. The average number of small diameter microparticles per colored resin particle was calculated therefrom.

Oc1ccc(O)cc1 [A, Hydroquinone]
Average number of small diameter microparticles per colored resin particle: weak
